According to patent US12479858B2, “Macrocyclic compounds as sting agonists and methods and uses thereof” (Lupin Limited, priority 2019, dated 2025):
In brackets after ≈: the same amount, converted by molar mass. Where a name gives a salt, the structure may show the parent alone.

Columns and labels:
[1] = target: T1, Human STING (Homo sapiens, UniProt Q86WV6, G230A/H232R/R293Q/R71H); test: Stimulation of human STING signaling in THP1 cell line (THP1-Blue ISG SEAP reporter); type: cell-based; conditions: THP1-Blue ISG cells, SEAP activity, 18-20 hours
T1 construct: using human THP1-Blue™ ISG SEAP based reporter cell line (Invivogen); host or cells: THP1-Blue ISG cells (human monocytic THP-1 derived SEAP reporter line)
Procedure: Biological Assay—Stimulation of Human STING Signaling in THP1 Cell Line
Compounds were tested for their STING activation potential using human THP1-Blue™ ISG SEAP based reporter cell line (Invivogen). Briefly, THP1-Blue ISG cells (100,000 cells/well) in 96 well plate were treated with varying concentrations of test and reference compounds and incubated at 37° C. with 5% CO2 for 18-20 hours. The control untreated cells were also set up. Post incubation, the cell supernatant was tested for SEAP (Secreted Embryonic Alkaline Phosphatase) activity using the QuantiBlue™ substrate reagent (Invivogen). The formation of blue coloured product was quantified by measuring absorbance at wavelength of 620 nm using PheraStar/Tecan reader. The average of duplicate readouts for each data point was plotted in GraphPad prism 6 against the concentration of test or reference compound to calculate EC50 value. The fold of SEAP induction or increase in luminescence at different data points was estimated against the un-stimulated cell control set.

[2] = Apparent solubility/extended kinetic solubility by UHPLC; type: physicochemical; conditions: aqueous buffer, thermodynamic from solid, phosphate buffer, 37° C.
Procedure: Biological Assay—Determination of Apparent Solubility/Extended Kinetic Solubility by UHPLC
Test sample preparation: About 0.5 mg of the test sample was weighed and transferred in duplicate in 1 mL glass inserts of 96 well plates. 5 μL of DMSO and 1 ml of phosphate buffer were added. Allowed for equilibrium in an orbital shaker at 37° C. for 24 hrs. Later, allowed it cool to room temperature and centrifuged the 96 well plate (at 240×10 RPM for 20 min) and supernatant material was taken into collection plate, covered it with the heat resistant aluminum sheet or supernatant material was directly taken into HPLC sample vial.
Injected diluent as blank and linearity solutions in duplicate. Recorded the chromatograms and plotted the calibration curve, concentration (X-axis) versus Area (y-axis). The correlation coefficient for calibration curve should be not less than 0.95. If above criteria passes, then injected the test samples and recorded the chromatograms. In case saturated peaks are observed, then diluted the test sample with diluent as appropriate.
Calculated the slope and intercept of the calibration curve. From the standard curve, determined the solubility of the sample in μM (micromolar).

T1 sequence (Q86WV6 whole entry R71H/G230A/H232R/R293Q): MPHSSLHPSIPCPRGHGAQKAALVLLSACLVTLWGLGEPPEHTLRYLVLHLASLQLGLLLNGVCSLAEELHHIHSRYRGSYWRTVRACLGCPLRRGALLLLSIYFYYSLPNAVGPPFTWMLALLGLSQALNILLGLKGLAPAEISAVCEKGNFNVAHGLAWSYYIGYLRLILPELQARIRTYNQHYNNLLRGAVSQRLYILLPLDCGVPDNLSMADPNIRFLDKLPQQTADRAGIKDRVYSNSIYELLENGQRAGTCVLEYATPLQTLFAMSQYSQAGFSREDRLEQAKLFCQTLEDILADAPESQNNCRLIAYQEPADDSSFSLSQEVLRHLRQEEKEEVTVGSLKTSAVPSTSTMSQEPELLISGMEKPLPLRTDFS

Row | SMILES | EC50 [1] [nM] | solubility at 24 h [2] [µM]
1 | CCn1nc(C)cc1C(=O)Nc1nc2cc(C(N)=O)cc3c2n1C/C=C/Cn1c(NC(=O)c2cc(C)nn2CC)nc2cc(C(=O)N[C@H]4CC[C@@H](C(=O)O)CC4)cc(c21)OCCCO3 [Compound 1, (1S,4S)-4-((E)-12-carbamoyl-1,15-bis(1-ethyl-3-methyl-1H-pyrazole-5-carboxamido)-8,9,16,19-tetrahydro-7H-6,10-dioxa-2,14,15a,19a-tetraazacyclopentadeca[3,2,1-cd:8,9,10-c′d′]diindene-4-carboxamido)cyclohexane-1-carboxylic acid] | 11 to 100 | –
2 | CCn1nc(C)cc1C(=O)Nc1nc2cc(C(N)=O)cc3c2n1C/C=C/Cn1c(NC(=O)c2cc(C)nn2CC)nc2cc(C(=O)NCCc4ccccc4C(=O)O)cc(c21)OCCCO3 [Compound 5, (E)-2-(2-(12-carbamoyl-1,15-bis(1-ethyl-3-methyl-1H-pyrazole-5-carboxamido)-8,9,16,19-tetrahydro-7H-6,10-dioxa-2,14,15a,19a-tetraazacyclopentadeca[3,2,1-cd:8,9,10-c′d′]diindene-4-carboxamido)ethyl)benzoic acid sodium salt] | 1 to 10 | 1120
3 | CCn1nc(C)cc1C(=O)Nc1nc2cc(C(N)=O)cc3c2n1C/C=C/Cn1c(NC(=O)c2cc(C)nn2CC)nc2cc(C(=O)N[C@H]4CC[C@@H](c5nnn[nH]5)CC4)cc(c21)OCCCO3 [Compound 7, (E)-N-((1S,4S)-4-(1H-tetrazol-5-yl)cyclohexyl)-1,15-bis(1-ethyl-3-methyl-1H-pyrazole-5-carboxamido)-8,9,16,19-tetrahydro-7H-6,10-dioxa-2,14,15a,19a-tetraazacyclopentadeca[3,2,1-cd:8,9,10-c′d′]diindene-4,12-dicarboxamide] | 11 to 100 | –
4 | CCn1nc(C)cc1C(=O)Nc1nc2cc(C(N)=O)cc3c2n1C/C=C/Cn1c(NC(=O)c2cc(C)nn2CC)nc2cc(C(=O)NCc4ncccc4C(=O)O)cc(c21)OCCCO3 [Compound 9, (E)-2-((4-carbamoyl-1,15-bis(1-ethyl-3-methyl-1H-pyrazole-5-carboxamido)-8,9,16,19-tetrahydro-7H-6,10-dioxa-2,14,15a,19a-tetraazacyclopentadeca[3,2,1-cd:8,9,10-c′d′]diindene-12-carboxamido)methyl)nicotinic acid] | 11 to 100 | 100 (≈ 88.4 µg/mL)
5 | CCn1nc(C)cc1C(=O)Nc1nc2cc(C(N)=O)cc3c2n1C/C=C/Cn1c(NC(=O)c2cc(C)nn2CC)nc2cc(C(=O)NCCCn4nn[nH]c4=O)cc(c21)OCCCO3 [Compound 10, (E)-1,15-bis(1-ethyl-3-methyl-1H-pyrazole-5-carboxamido)-N-(3-(5-oxo-4,5-dihydro-1H-tetrazol-1-yl)propyl)-8,9,16,19-tetrahydro-7H-6,10-dioxa-2,14,15a,19a-tetraazacyclopentadeca[3,2,1-cd:8,9,10-c′d′]diindene-4,12-dicarboxamide] | 11 to 100 | 631 (≈ 552 µg/mL)
6 | CCn1nc(C)cc1C(=O)Nc1nc2cc(C(N)=O)cc3c2n1C/C=C/Cn1c(NC(=O)c2cc(C)nn2CC)nc2cc(C(=O)NCCCc4nnn[nH]4)cc(c21)OC[C@@H](N1C2CCC1COC2)CO3 [Compound 16, (8S,E)-N4-(3-(1H-tetrazol-5-yl)propyl)-8-(3-oxa-8-azabicyclo[3.2.1]octan-8-yl)-1,15-bis(1-ethyl-3-methyl-1H-pyrazole-5-carboxamido)-8,9,16,19-tetrahydro-7H-6,10-dioxa-2,14,15a,19a-tetraazacyclopentadeca[3,2,1-cd:8,9,10-c′d′]diindene-4,12-dicarboxamide sodium salt] | 1 to 10 | 243
7 | CCn1nc(C)cc1C(=O)Nc1nc2cc(C(N)=O)cc3c2n1C/C=C/Cn1c(NC(=O)c2cc(C)nn2CC)nc2cc(C(=O)NCCCn4cc(C(=O)O)cn4)cc(c21)OC[C@@H](N1C2CCC1COC2)CO3 [Compound 18, 1-(3-((8S,E)-8-(3-oxa-8-azabicyclo[3.2.1]octan-8-yl)-12-carbamoyl-1,15-bis(1-ethyl-3-methyl-1H-pyrazole-5-carboxamido)-8,9,16,19-tetrahydro-7H-6,10-dioxa-2,14,15a,19a-tetraazacyclopentadeca[3,2,1-cd:8,9,10-c′d′]diindene-4-carboxamido)propyl)-1H-pyrazole-4-carboxylic acid sodium salt] | 1 to 10 | 250
8 | CCn1nc(C)cc1C(=O)Nc1nc2cc(C(N)=O)cc3c2n1C/C=C/Cn1c(NC(=O)c2cc(C)nn2CC)nc2cc(C(=O)N[C@H]4CC[C@H](C(=O)O)CC4)cc(c21)OCC(N1CC2CCC(C1)O2)CO3 (stereo partly drawn) [Compound 20, (1R,4R)-4-((E)-8-(8-oxa-3-azabicyclo[3.2.1]octan-3-yl)-12-carbamoyl-1,15-bis(1-ethyl-3-methyl-1H-pyrazole-5-carboxamido)-8,9,16,19-tetrahydro-7H-6,10-dioxa-2,14,15a,19a-tetraazacyclopentadeca[3,2,1-cd:8,9,10-c′d′]diindene-4-carboxamido)cyclohexane-1-carboxylic acid] | 11 to 100 | –
9 | CCn1nc(C)cc1C(=O)Nc1nc2cc(C(N)=O)cc3c2n1C/C=C/Cn1c(NC(=O)c2cc(C)nn2CC)nc2cc(C(=O)N[C@H]4CC[C@H](c5nnn[nH]5)CC4)cc(c21)OCC(N1CC2CCC(C1)O2)CO3 (stereo partly drawn) [Compound 22, (E)-N-((1R,4R)-4-(1H-tetrazol-5-yl)cyclohexyl)-8-(8-oxa-3-azabicyclo[3.2.1]octan-3-yl)-1,15-bis(1-ethyl-3-methyl-1H-pyrazole-5-carboxamido)-8,9,16,19-tetrahydro-7H-6,10-dioxa-2,14,15a,19a-tetraazacyclopentadeca [3,2,1-cd:8,9,10-c′d′]diindene-4,12-dicarboxamide] | 11 to 100 | –

Other lines, results leading:

Row | EC50 [1] [nM] | solubility at 24 h [2] [µM] | SMILES
10 | 1 to 10 | 928 | CCn1nc(C)cc1C(=O)Nc1nc2cc(C(N)=O)cc3c2n1C/C=C/Cn1c(NC(=O)c2cc(C)nn2CC)nc2cc(C(=O)NCCCc4nnn[nH]4)cc(c21)OCCCO3 [Compound 3, (E)-N-(3-(1H-tetrazol-5-yl)propyl)-1,15-bis(1-ethyl-3-methyl-1H-pyrazole-5-carboxamido)-8,9,16,19-tetrahydro-7H-6,10-dioxa-2,14,15a,19a-tetraazacyclopentadeca[3,2,1-cd:8,9,10-c′d′]diindene-4,12-dicarboxamide sodium salt]
11 | 1 to 10 | 149 (≈ 126 µg/mL) | CCn1nc(C)cc1C(=O)Nc1nc2cc(C(N)=O)cc3c2n1C/C=C/Cn1c(NC(=O)c2cc(C)nn2CC)nc2cc(C(=O)NCCc4nnn[nH]4)cc(c21)OCCCO3 [Compound 4, (E)-N-(2-(1H-tetrazol-5-yl)ethyl)-1,15-bis(1-ethyl-3-methyl-1H-pyrazole-5-carboxamido)-8,9,16,19-tetrahydro-7H-6,10-dioxa-2,14,15a,19a-tetraazacyclopentadeca[3,2,1-cd:8,9,10-c′d′]diindene-4,12-dicarboxamide]
12 | 1 to 10 | 98 (≈ 85.7 µg/mL) | CCn1nc(C)cc1C(=O)Nc1nc2cc(C(N)=O)cc3c2n1C/C=C/Cn1c(NC(=O)c2cc(C)nn2CC)nc2cc(C(=O)NCCCc4noc(=O)[nH]4)cc(c21)OCCCO3 [Compound 11, (E)-1,15-bis(1-ethyl-3-methyl-1H-pyrazole-5-carboxamido)-N-(3-(5-oxo-4,5-dihydro-1,2,4-oxadiazol-3-yl)propyl)-8,9,16,19-tetrahydro-7H-6,10-dioxa-2,14,15a,19a-tetraazacyclopentadeca[3,2,1-cd:8,9,10-c′d′]diindene-4,12-dicarboxamide]
13 | 11 to 100 | – | CCn1nc(C)cc1C(=O)Nc1nc2cc(C(N)=O)cc3c2n1C/C=C/Cn1c(NC(=O)c2cc(C)nn2CC)nc2cc(C(=O)NCCCc4nnn[nH]4)cc(c21)OC[C@H](N1C2CCC1COC2)CO3 [Compound 17, (8R,E)-N4-(3-(1H-tetrazol-5-yl)propyl)-8-(3-oxa-8-azabicyclo[3.2.1]octan-8-yl)-1,15-bis(1-ethyl-3-methyl-1H-pyrazole-5-carboxamido)-8,9,16,19-tetrahydro-7H-6,10-dioxa-2,14,15a,19a-tetraazacyclopentadeca[3,2,1-cd:8,9,10-c′d′]diindene-4,12-dicarboxamide sodium salt]
14 | 11 to 100 | – | CCn1nc(C)cc1C(=O)Nc1nc2cc(C(N)=O)cc3c2n1C/C=C/Cn1c(NC(=O)c2cc(C)nn2CC)nc2cc(C(=O)NCCCn4cc(C(=O)O)cn4)cc(c21)OC[C@H](N1C2CCC1COC2)CO3 [Compound 19, 1-(3-((8R,E)-8-(3-oxa-8-azabicyclo[3.2.1]octan-8-yl)-12-carbamoyl-1,15-bis(1-ethyl-3-methyl-1H-pyrazole-5-carboxamido)-8,9,16,19-tetrahydro-7H-6,10-dioxa-2,14,15a,19a-tetraazacyclopentadeca[3,2,1-cd:8,9,10-c′d′]diindene-4-carboxamido)propyl)-1H-pyrazole-4-carboxylic acid sodium salt]
